Experimental findings from ChEMBL document CHEMBL1135346, “2,5-Pyridinedicarboxylic acid derivatives as non-nucleosidic reverse transcriptase inhibitors of hepatitis B virus” (Bioorg Med Chem Lett, 2002) are described below.

One may read the inhibition as the drop in the measured response relative to a control, in per cent. Read a low inhibition as a response near the control. One may read the IC50 as the concentration at which inhibition is half-maximal.

Test [1] is described as follows: Inhibitory activity against Hepatitis B virus reverse transcriptase (HBV-RT) at 1 ug/mL.
Test [2] is described as follows: Inhibitory activity against Hepatitis B virus reverse transcriptase (HBV-RT) at 0.1 ug/mL.
Test [3] is described as follows: Inhibitory concentration against Hepatitis B virus reverse transcriptase (HBV-RT).
A short description of test [4]: Inhibitory activity against Hepatitis B virus reverse transcriptase (HBV-RT) at 0.01 ug/mL.
Test [5] in a line: Inhibitory concentration against Hepatitis B virus-Reverse-transcriptase (HBV-RT).

Converted amounts (≈) assume the structure as drawn.

With `CC(C)Nc1cccnc1N1CCN(C(=O)c2ccc(C(=O)NC3CC3)cn2)CC1`, the results for the inhibition in test [1], in test [2] and in test [4] were 62%, 51% and 5%, respectively. The same molecule came in with an IC50 in test [3] of 0.237 µg/mL (≈ 0.58 µM).
Regarding `CC(C)Nc1cccnc1N1CCN(C(=O)c2ccc(C(=O)NC(C)(C)C)cn2)CC1`, the inhibition in test [1] came to 88%; in test [2], 72%; in test [4], 61%. This molecule returned a half-inhibitory concentration (IC50) in test [3] of 0.002 µg/mL (≈ 0.00471 µM).
For `CC(C)CNc1cccnc1N1CCN(C(=O)c2ccc(C(=O)NC(C)(C)CO)cn2)CC1`, in that order: 90%, 71%, 63% and 0.001 µg/mL (≈ 0.0022 µM).
Turning to `CC(C)(CO)NC(=O)c1ccc(C(=O)N2CCN(c3ncccc3N)CC2)nc1`, the inhibition in test [1] is 70%; in test [2], 62%; in test [4], 38%. In addition, in test [3], the half-maximal inhibitory concentration (IC50) stood at 0.038 µg/mL (≈ 0.0954 µM).
For `CC(C)NC(=O)c1ccc(C(=O)N2CCN(c3ncccc3N)CC2)nc1`, in that order: 79%, 62%, 43% and 0.023 µg/mL (≈ 0.0624 µM).
For `CCNc1cccnc1N1CCN(C(=O)c2ccc(C(=O)NC(C)(C)CO)cn2)CC1`, the values for the inhibition in test [1], in test [2] and in test [4] were 72%, 56% and 32%, respectively. For the same molecule, in test [3], the IC50 was found to be 0.068 µg/mL (≈ 0.159 µM).
In the case of `CC(C)Nc1cccnc1N1CCN(C(=O)c2ccc(C(=O)Nc3ccccn3)cn2)CC1`, the inhibition in test [1] turned out to be 74%; in test [2] it was 55%; in test [4] it was 26%. For the same molecule, the IC50 in test [3] came out at 0.085 µg/mL (≈ 0.191 µM).
On to `CCNc1cccnc1N1CCN(C(=O)c2ccc(C(=O)NCCO)cn2)CC1`, for which the inhibition in test [1] was 84%; in test [2] it was 69%; in test [4] it was 52%. The molecule also had an IC50 in test [3] of 0.007 µg/mL (≈ 0.0176 µM).
Take `CC(C)Nc1cccnc1N1CCN(C(=O)c2ccc(C(=O)NC(C)(C)CO)cn2)CC1`: the inhibition in test [1] came out at 80%; in test [2], 65%; in test [4] it was 62%. This molecule had an IC50 in test [5] of 0.001 µg/mL (≈ 0.00227 µM).
As for `CCNc1cccnc1N1CCN(C(=O)c2ccc(C(=O)NCCOC)cn2)CC1`, the inhibition was found to be 75% in test [1], 57% in test [2] and 36% in test [4]. In test [3], this molecule returned a half-inhibitory concentration (IC50) of 0.049 µg/mL (≈ 0.119 µM).
For the molecule `CC(C)Nc1cccnc1N1CCN(C(=O)c2ccc(C(=O)NCCO)cn2)CC1`, the figures for the inhibition in test [1], in test [2] and in test [4] were 54%, 51% and 30%, respectively. The same molecule returned an IC50 in test [3] of 0.261 µg/mL (≈ 0.633 µM).
In the case of `COCCNC(=O)c1ccc(C(=O)N2CCN(c3ncccc3NCC(C)C)CC2)nc1`, the inhibition came out at 85% in test [1], 70% in test [2] and 52% in test [4]. In test [3], this molecule showed an IC50 of 0.007 µg/mL (≈ 0.0159 µM).
For `CC(C)Nc1cccnc1N1CCN(C(=O)c2ccc(C(=O)NCCN3CCOCC3)cn2)CC1`, in that order: 70%, 60%, 49% and 0.012 µg/mL (≈ 0.0249 µM).
With `CC(C)CNC(=O)c1ccc(C(=O)N2CCN(c3ncccc3NC(C)C)CC2)nc1`, the inhibition in test [1] was 83%; in test [2] it was 65%; in test [4], 61%. In test [3], this molecule came in with a half-inhibitory concentration (IC50) of 0.002 µg/mL (≈ 0.00471 µM).
In the same order, the values of `CC(C)Nc1cccnc1N1CCN(C(=O)c2ccc(C(=O)NC3CCCC3)cn2)CC1` are 75%, 65%, 39% and 0.029 µg/mL (≈ 0.0664 µM).
Consider `CC(C)Nc1cccnc1N1CCN(C(=O)c2ccc(C(=O)NCCCO)cn2)CC1`, for which the inhibition in test [1] came to 71%; in test [2] it was 60%; in test [4], 49%. In addition, the 50% inhibitory concentration (IC50) in test [3] is 0.012 µg/mL (≈ 0.0281 µM).
In the same order, the values of `CCNc1cccnc1N1CCN(C(=O)c2ccc(C(=O)NCCN3CCOCC3)cn2)CC1` are 66%, 52%, 30% and 0.109 µg/mL (≈ 0.233 µM).
As to `CC(C)NC(=O)c1ccc(C(=O)N2CCN(c3ncccc3NC(C)C)CC2)nc1`, the inhibition in test [1] came out at 65%; in test [2], 51%; in test [4], 23%. Besides, the IC50 in test [3] was 0.149 µg/mL (≈ 0.363 µM).
For the molecule `COCCCNC(=O)c1ccc(C(=O)N2CCN(c3ncccc3NC(C)C)CC2)nc1`, the inhibition in test [1] was determined as 63%; in test [2], 53%; in test [4], 28%. The molecule further came in with an IC50 in test [3] of 0.13 µg/mL (≈ 0.295 µM).
For `CC(C)CNc1cccnc1N1CCN(C(=O)c2ccc(C(=O)NCCCn3ccnc3)cn2)CC1`, in that order: 88%, 72%, 60% and 0.002 µg/mL (≈ 0.00408 µM).
Take `CC(C)Nc1cccnc1N1CCN(C(=O)c2ccc(C(=O)NCc3ccccn3)cn2)CC1`: the values for the inhibition in test [1], in test [2] and in test [4] were 77%, 62% and 53%, respectively. In test [3], this molecule came in with an IC50 of 0.007 µg/mL (≈ 0.0152 µM).
In the same order, the values of `Nc1cccnc1N1CCN(C(=O)c2ccc(C(=O)NCCO)cn2)CC1` are 74%, 67%, 54% and 0.003 µg/mL (≈ 0.0081 µM).
In the case of `Cc1ccn(NC(=O)c2ccc(C(=O)N3CCN(c4ncccc4NC(C)C)CC3)nc2)n1`, the values for the inhibition in test [1], in test [2] and in test [4] were 70%, 53% and 20%, respectively. This molecule registered an IC50 in test [3] of 0.124 µg/mL (≈ 0.276 µM).
In the same order, the values of `COCCCNC(=O)c1ccc(C(=O)N2CCN(c3ncccc3NCC(C)C)CC2)nc1` are 72%, 51%, 20% and 0.123 µg/mL (≈ 0.271 µM).
On to `CCNc1cccnc1N1CCN(C(=O)c2ccc(C(=O)NCc3ccccn3)cn2)CC1`, for which the figures for the inhibition in test [1], in test [2] and in test [4] were 70%, 56% and 19%, respectively. In test [3], this molecule registered an IC50 of 0.116 µg/mL (≈ 0.26 µM).
In the same order, the values of `CC(C)Nc1cccnc1N1CCN(C(=O)c2ccc(C(=O)NCCCn3ccnc3)cn2)CC1` are 89%, 72%, 65% and 0.001 µg/mL (≈ 0.0021 µM).
For `CC(C)CNc1cccnc1N1CCN(C(=O)c2ccc(C(=O)NC(C)C)cn2)CC1`, the inhibition turned out to be 90% in test [1], 66% in test [2] and 58% in test [4]. The molecule also had an IC50 in test [3] of 0.005 µg/mL (≈ 0.0118 µM).
For `Cc1cc(NC(=O)c2ccc(C(=O)N3CCN(c4ncccc4NC(C)C)CC3)nc2)no1`, in that order: 72%, 50%, 25% and 0.11 µg/mL (≈ 0.245 µM).
Take `COC(CNC(=O)c1ccc(C(=O)N2CCN(c3ncccc3NC(C)C)CC2)nc1)OC`: the inhibition was found to be 87% in test [1], 65% in test [2] and 57% in test [4]. Also, the IC50 in test [3] was 0.005 µg/mL (≈ 0.011 µM).
Turning to `CCNc1cccnc1N1CCN(C(=O)c2ccc(C(=O)NC(C)C)cn2)CC1`, the inhibition in test [1] was found to be 85%; in test [2], 67%; in test [4], 54%. In test [3], this molecule displayed a 50% inhibitory concentration (IC50) of 0.006 µg/mL (≈ 0.0151 µM).
As to `CC(C)CNc1cccnc1N1CCN(C(=O)c2ccc(C(=O)NCCO)cn2)CC1`, the inhibition in test [1] turned out to be 86%; in test [2], 60%; in test [4] it was 54%. Moreover, the IC50 in test [3] is 0.009 µg/mL (≈ 0.0211 µM).
For `Nc1cccnc1N1CCN(C(=O)c2ccc(C(=O)NCc3ccccn3)cn2)CC1`, in that order: 72%, 54%, 22% and 0.106 µg/mL (≈ 0.254 µM).
In the same order, the values of `CC(C)CNc1cccnc1N1CCN(C(=O)c2ccc(C(=O)NC3CC3)cn2)CC1` are 87%, 71%, 60% and 0.002 µg/mL (≈ 0.00473 µM).
For `COCCNC(=O)c1ccc(C(=O)N2CCN(c3ncccc3NC(C)C)CC2)nc1`, in that order: 80%, 68%, 60% and 0.001 µg/mL (≈ 0.00234 µM).
With `CC(C)CNc1cccnc1N1CCN(C(=O)c2ccc(C(=O)Nc3ncccc3O)cn2)CC1`, the inhibition in test [1] was determined as 71%; in test [2], 46%; in test [4] it was 13%. The same molecule showed a 50% inhibitory concentration (IC50) in test [3] of 0.17 µg/mL (≈ 0.357 µM).
